Data: PMC6253949, “The Inhibitory Action of Kohamaic Acid A Derivatives on Mammalian DNA Polymerase β” (Molecules, 2008)

Tests used:
Format in all cases: biochemical
[1] = molecular target: T1, E. coli DNA polymerase I (Klenow fragment) (Escherichia coli, UniProt P00582); experiment: DNA polymerase assay, Klenow fragment
T1 construct: The Klenow fragment of pol I from E. coli; purchased Worthington Biochemical Corp. (Freehold, NJ, USA)
Excerpt: (§1) Pol α was purified from calf thymus by immuno-affinity column chromatography as described by Tamai et al.. Recombinant rat pol β was purified from E. coli JMpβ5 as described by Date et al.. The human pol γ catalytic gene was cloned into pFastBac. Histidine-tagged enzyme was expressed using the BAC-TO-BAC HT Baculovirus Expression System according to the supplier's manual (LIFE TECHNOLOGIES, MD, USA) and purified using ProBoundresin (Invitrogen Japan, Tokyo, Japan). Human pols δ and ε were purified by the nuclear fractionation of human peripheral blood cancer cells (Molt-4) using the second subunit of pols δ and ε-conjugated affinity column chromatography, respectively. Recombinant human pols η and ι tagged with His6 at their C-terminal were expressed in SF9 insect cells using the baculovirus expression system, and were purified as described previously. A truncated form of pol κ (i.e., hDINB1DC) with 6 x His-tags attached at the C-terminal was overproduced using the BAC-to-BAC Baculovirus Expression System kit (GIBCO BRL, MD, USA) and purified as described previously. […]
(§2) For pols, poly(dA)/oligo(dT)12-18 (A/T = 2/1) and dTTP were used as the DNA template-primer and nucleotide (i.e., dNTP) substrate, respectively. […] Activity without the inhibitor was considered 100%, and the remaining activity at each concentration of the inhibitor was determined relative to this value. […]

Human DNA polymerase ι = molecular target: T2, Human DNA polymerase ι (Homo sapiens, UniProt Q9UNA4); experiment: DNA polymerase assay, human pol ι
T2 construct: His6 (C); made in house; host or cells: SF9 insect cells (baculovirus)
T2 sequence (Q9UNA4 1-740): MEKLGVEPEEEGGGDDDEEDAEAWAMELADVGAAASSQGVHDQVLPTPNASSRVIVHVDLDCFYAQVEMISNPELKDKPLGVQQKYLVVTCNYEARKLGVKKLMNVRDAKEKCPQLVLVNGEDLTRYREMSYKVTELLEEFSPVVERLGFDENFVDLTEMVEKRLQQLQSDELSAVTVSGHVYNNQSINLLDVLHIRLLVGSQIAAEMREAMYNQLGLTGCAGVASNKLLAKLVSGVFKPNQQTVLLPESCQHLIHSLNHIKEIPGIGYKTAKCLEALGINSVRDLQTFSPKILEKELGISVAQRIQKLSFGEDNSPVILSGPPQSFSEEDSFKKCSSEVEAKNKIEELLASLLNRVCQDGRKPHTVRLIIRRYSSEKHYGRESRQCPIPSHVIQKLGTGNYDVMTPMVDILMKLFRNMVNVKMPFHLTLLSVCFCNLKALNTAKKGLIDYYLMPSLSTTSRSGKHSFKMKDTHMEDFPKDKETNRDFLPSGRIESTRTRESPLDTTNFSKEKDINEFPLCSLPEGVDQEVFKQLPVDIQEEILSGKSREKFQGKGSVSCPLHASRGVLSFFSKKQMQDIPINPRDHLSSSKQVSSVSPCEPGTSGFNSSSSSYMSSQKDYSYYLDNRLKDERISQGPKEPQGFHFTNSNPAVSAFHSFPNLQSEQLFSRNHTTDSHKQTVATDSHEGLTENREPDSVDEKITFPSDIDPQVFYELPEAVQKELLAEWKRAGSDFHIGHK
Excerpt: as §1, §2

Taq DNA polymerase = molecular target: T3, Taq DNA polymerase (Thermus aquaticus, UniProt P19821); experiment: DNA polymerase assay, Taq pol; conditions: incubated at 74 °C
T3 construct: purchased Takara (Kyoto, Japan)
T3 sequence (P19821 whole entry): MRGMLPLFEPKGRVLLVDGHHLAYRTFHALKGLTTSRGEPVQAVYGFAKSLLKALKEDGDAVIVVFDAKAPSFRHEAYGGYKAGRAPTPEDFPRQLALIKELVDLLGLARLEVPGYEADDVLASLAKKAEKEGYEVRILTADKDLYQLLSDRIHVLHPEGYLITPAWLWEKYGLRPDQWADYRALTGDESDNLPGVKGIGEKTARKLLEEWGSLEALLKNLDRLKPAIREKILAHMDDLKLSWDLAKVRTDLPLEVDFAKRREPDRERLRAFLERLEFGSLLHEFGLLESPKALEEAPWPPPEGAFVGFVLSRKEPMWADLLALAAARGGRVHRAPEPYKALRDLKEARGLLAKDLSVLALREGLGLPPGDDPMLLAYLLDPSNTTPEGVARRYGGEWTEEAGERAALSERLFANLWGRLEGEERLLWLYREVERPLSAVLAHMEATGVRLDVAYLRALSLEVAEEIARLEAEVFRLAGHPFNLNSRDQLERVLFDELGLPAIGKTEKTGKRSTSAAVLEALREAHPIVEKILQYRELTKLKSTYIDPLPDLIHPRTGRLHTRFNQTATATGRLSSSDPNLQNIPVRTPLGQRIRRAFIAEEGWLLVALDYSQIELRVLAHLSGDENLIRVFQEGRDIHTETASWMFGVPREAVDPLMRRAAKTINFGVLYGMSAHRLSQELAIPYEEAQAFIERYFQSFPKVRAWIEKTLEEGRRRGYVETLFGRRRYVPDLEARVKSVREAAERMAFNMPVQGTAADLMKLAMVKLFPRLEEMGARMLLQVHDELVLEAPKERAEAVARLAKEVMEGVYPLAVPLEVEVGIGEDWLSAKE
Excerpt: as §1, §2

T1 sequence (P00582 324-928): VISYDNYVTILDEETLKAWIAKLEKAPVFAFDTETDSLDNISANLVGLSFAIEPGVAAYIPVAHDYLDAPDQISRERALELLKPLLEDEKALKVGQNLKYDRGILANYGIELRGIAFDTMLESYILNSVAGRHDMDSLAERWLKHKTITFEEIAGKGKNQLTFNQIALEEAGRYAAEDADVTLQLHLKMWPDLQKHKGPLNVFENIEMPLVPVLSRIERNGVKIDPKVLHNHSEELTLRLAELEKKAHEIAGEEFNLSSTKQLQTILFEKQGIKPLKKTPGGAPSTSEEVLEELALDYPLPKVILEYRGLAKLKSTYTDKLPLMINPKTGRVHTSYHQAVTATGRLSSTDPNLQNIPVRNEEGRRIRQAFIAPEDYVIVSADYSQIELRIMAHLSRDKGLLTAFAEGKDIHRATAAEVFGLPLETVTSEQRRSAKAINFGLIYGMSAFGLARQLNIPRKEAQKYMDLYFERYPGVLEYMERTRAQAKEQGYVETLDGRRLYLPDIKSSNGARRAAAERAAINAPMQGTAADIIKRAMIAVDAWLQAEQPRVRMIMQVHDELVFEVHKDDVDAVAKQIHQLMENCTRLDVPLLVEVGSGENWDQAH

Work on `CC1=CC[C@H]2C(C)(C)CCC[C@]2(C)[C@H]1CCCCCCCCCCCCCCCCC(=O)O` (relative stereo) [compound 11, (1S*,4aS*,8aS*)-17-(1,4,4a,5,6,7,8,8a-octahydro-2,5,5,8a-tetramethylnaphthalen-1-yl)heptadecanoic acid] yielded an IC50 [1] greater than 200 µM, an IC50 (Human DNA polymerase ι) of 7.84 ± 0.39 µM and an IC50 (Taq DNA polymerase) greater than 200 µM.
